{
  "source": "patent US12599560B2",
  "about": "“Lipids and lipid nanoparticle formulations” (Longuide Biopharma Corporation, priority 2023, dated 2026)",
  "key": {"mice": {"tested_on": "mice", "test": "In vivo delivery of FLuc-mRNA lipid nanoparticle preparations in mice (IVIS imaging)", "parameters": "In vivo IVIS / In vivo IVIS (liver) / In vivo IVIS (spleen): unit not given here", "in_short": "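FLuc-mRNA LNPs given intramuscularly into thigh rectus femoris or intravenously via tail vein, about 75 μL per mouse, 3 mice. D-Luciferin (200 μL, 15 mg/mL) injected i.p. 10–15 min before IVIS imaging at set times after dosing.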"}, "[1]": {"test": "Particle size and PDI by dynamic light scattering", "type": "physicochemical", "conditions": "Table 2; for Particle size (nm): LNP formulation with mRNA; for PDI: polydispersity value", "in_short": "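Lipid nanoparticle solution (about 0.04 mg/mL mRNA) diluted in ultrapure water and particle size measured by dynamic light scattering on a Malvern instrument. Sample then further diluted with water for potential measurement.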"}, "[2]": {"test": "Osmotic pressure by freezing point osmometer", "type": "physicochemical", "conditions": "formulation No. 1, molar ratio 1.50:20:33.50:45.00", "experimental": "50 μL of the nucleic acid lipid nanoparticle solution (containing about 0.04 mg/mL mRNA) was taken and the osmotic pressure of the nanopreparation was detected by freezing point penetrometer (Gonotec GmbH, OSMOMAT 3000-D)."}, "A549 cells [3]": {"tested_on": "A549 cells", "test": "Cell transfection assay (D-Luciferin), A549", "type": "cell-based", "experimental": "(§1) A549 cells were digested and collected the day before treatment and the cell concentration was adjusted to 2*10^5 cells/mL, 200 μL cell culture medium with a concentration of 2*10^5 cells/mL was added to the 96-well plate, resulting in approximately 4*10^4 cells per well in the 96-well plate. Digested and collected DC2.4 cells and adjusted the cell concentration to 1*10^5 cells/mL, added 200 μL cell culture medium with a concentration of 1*10^5 cells/mL to the 96-well plate, so that the number of cells per well in the 96-well plate is approximately 2*10^4. The cells were incubated in a cell culture incubator (Esco Micro Pte Ltd, Singapore, CLM-170B-8-NF) at 37° C. 5% CO2 for 24 h.\n(§2) On the day of cell treatment, the medium (Thermo Fisher Scientific) was aspirated from the 96-well plate, 200 μL of PBS was added to each well to rinse the cells and then the PBS (Thermo Fisher Scientific) was removed, and 180 μL of opti-MEM (Thermo Fisher Scientific) was added to each well of the treatment group.\n(§3) Different volumes of the preparation were taken and diluted by adding the buffer used for the preparation or the buffer used for dialysis, and four dosing concentrations were prepared for each preparation, and 20 μL of the diluted nanopreparation was added to each well of a 96-well plate (3 replicate wells for each concentration), and the dosing concentrations of the preparation were about 50 ng mRNA/well, 100 ng mRNA/well, 200 ng mRNA/well, and 300 ng mRNA/well, respectively.\n(§4) The 96-well cell culture plate was placed in a cell culture incubator and incubated at 37° C. 5% CO2 for 4 h. The medium was sucked up, and 200 μL of DMEM complete medium was added to each well and incubated for 20 h for detection.\n(§5) D-Luciferin (Biohub International Trade Co., Ltd.) stock solution (9900 μL of complete medium+100 μL of 25 mg/mL of D-Luciferin stock solution) was diluted with DMEM complete medium at 99:1 to make a working solution at the concentration of 250 μg/mL (25 μg per well).\n(§6) The 96-well cell culture plate was taken out and the supernatant was removed. Before imaging, the 96-well plate was added with 100 μL of D-Luciferin working solution, incubated at 37° C. for 5 min, and imaged and analyzed by the plate reader."}, "A549 cells [4]": {"tested_on": "A549 cells", "test": "Cytotoxicity assay (CCK-8), A549", "type": "cell-based", "experimental": "as §1, §2, §3, §4\n(§7) Diluted CCK-8 detection reagent (Shanghai Beyotime Biotechnology Co., Ltd.) masterbatch (900 μL complete medium+100 μL CCK-8 detection reagent) with DMEM complete medium at 9:1 to prepare CCK-8 working solution.\n(§8) Take out the 96-well cell culture plate and removed the supernatant. Before detection, the 96-well plate was added with 100 μL CCK-8 working solution, incubated in the cell culture incubator at 37° C. 5% CO2 for 2 h, and analyzed by plate reader. The cell viability was calculated to reflect the cytotoxicity."}, "DC2.4 cells [5]": {"tested_on": "DC2.4 cells", "test": "Cell transfection assay (D-Luciferin), DC2.4", "type": "cell-based", "experimental": "as §1, §2, §3, §4, §5, §6"}, "DC2.4 cells [6]": {"tested_on": "DC2.4 cells", "test": "Cytotoxicity assay (CCK-8), DC2.4", "type": "cell-based", "conditions": "formulation No. 2", "experimental": "as §1, §2, §3, §4, §7, §8"}, "[7]": {"conditions": "molar ratio 1.50:11.50:38.50:48.50, N/P 24"}, "[8]": {"conditions": "molar ratio 1.50:20.00:33.50:45.00, N/P 40"}, "[9]": {"conditions": "molar ratio 1.71:12.98:45.31:40.00, N/P 40"}},
  "data": [
    {"smiles": "CCCCCCCCCCCCOC(=O)C(O)CN(CCCN1CCN(CCCN(CC(O)C(=O)OCCCCCCCCCCCC)CC(O)C(=O)OCCCCCCCCCCCC)CC1)CC(O)C(=O)OCCCCCCCCCCCC", "note": "(stereo not shown) [Compound L0191]", "values": [
      {"measurement": "In vivo IVIS", "setting": "mice; Table 2, IM, whole body scan", "value": "8.97 × 10^7"},
      {"measurement": "In vivo IVIS (liver)", "setting": "mice; Table 2, IV, liver", "value": "2.77 × 10^8"},
      {"measurement": "In vivo IVIS (spleen)", "setting": "mice; Table 2, IV, spleen", "value": "1.03 × 10^8"},
      {"measurement": "In vivo IVIS", "setting": "mice; Table 4, IM", "value": "2.12 × 10^7"},
      {"measurement": "In vivo IVIS", "setting": "mice; Table 4, IV", "value": "9.64 × 10^8"},
      {"measurement": "in vivo delivery efficiency as compared to the benchmark compound SM102", "setting": "mice; certain formulations, Table 2", "value": "superior in vivo delivery efficiency"},
      {"measurement": "Particle size (nm)", "setting": "[1]; [7]", "value": "75.33 ± 0.78", "unit": "nm"},
      {"measurement": "Particle size (nm)", "setting": "[1]; [8]", "value": "70.87 ± 0.35", "unit": "nm"},
      {"measurement": "Particle size (nm)", "setting": "[1]; [9]", "value": "92.00 ± 0.39", "unit": "nm"},
      {"measurement": "PDI", "setting": "[1]; [7]", "value": "0.10 ± 0.01"},
      {"measurement": "PDI", "setting": "[1]; [8]", "value": "0.17 ± 0.01"},
      {"measurement": "PDI", "setting": "[1]; [9]", "value": "0.15 ± 0.02"},
      {"measurement": "osmotic pressure", "setting": "[2]", "value": 2139},
      {"measurement": "transfection efficiency (in words)", "setting": "A549 cells [3]; all tested formulations, A549 and DC2.4 cells", "value": "high"},
      {"measurement": "A549 transfection/RLU", "setting": "A549 cells [3]; formulation No. 1 (1.50:20:33.50:45.00), 50 ng/well", "value": 61522.00, "unit": "RLU"},
      {"measurement": "A549 transfection/RLU", "setting": "A549 cells [3]; formulation No. 1, 100 ng/well", "value": 80557.33, "unit": "RLU"},
      {"measurement": "A549 transfection/RLU", "setting": "A549 cells [3]; formulation No. 1, 200 ng/well", "value": 81404.33, "unit": "RLU"},
      {"measurement": "A549 transfection/RLU", "setting": "A549 cells [3]; formulation No. 1, 300 ng/well", "value": 84806.33, "unit": "RLU"},
      {"measurement": "A549 transfection/RLU", "setting": "A549 cells [3]; formulation No. 2 (1.50:11.50:38.50:48.50), 50 ng/well", "value": 31491.33, "unit": "RLU"},
      {"measurement": "A549 transfection/RLU", "setting": "A549 cells [3]; formulation No. 2, 100 ng/well", "value": 54866.67, "unit": "RLU"},
      {"measurement": "A549 transfection/RLU", "setting": "A549 cells [3]; formulation No. 2, 200 ng/well", "value": 90775.67, "unit": "RLU"},
      {"measurement": "A549 transfection/RLU", "setting": "A549 cells [3]; formulation No. 2, 300 ng/well", "value": 88154.33, "unit": "RLU"},
      {"measurement": "cellular toxicity (in words)", "setting": "A549 cells [4]; all tested formulations, even at high doses, e.g., 300 ng/well", "value": "low to no cellular toxicity"},
      {"measurement": "A549 cellular tox (% cells alive)", "setting": "A549 cells [4]; formulation No. 1, 50 ng/well", "value": 103.42, "unit": "%"},
      {"measurement": "A549 cellular tox (% cells alive)", "setting": "A549 cells [4]; formulation No. 1, 100 ng/well", "value": 105.39, "unit": "%"},
      {"measurement": "A549 cellular tox (% cells alive)", "setting": "A549 cells [4]; formulation No. 1, 200 ng/well", "value": 103.90, "unit": "%"},
      {"measurement": "A549 cellular tox (% cells alive)", "setting": "A549 cells [4]; formulation No. 1, 300 ng/well", "value": 103.50, "unit": "%"},
      {"measurement": "A549 cellular tox (% cells alive)", "setting": "A549 cells [4]; formulation No. 2, 50 ng/well", "value": 103.82, "unit": "%"},
      {"measurement": "A549 cellular tox (% cells alive)", "setting": "A549 cells [4]; formulation No. 2, 100 ng/well", "value": 105.86, "unit": "%"},
      {"measurement": "A549 cellular tox (% cells alive)", "setting": "A549 cells [4]; formulation No. 2, 200 ng/well", "value": 109.06, "unit": "%"},
      {"measurement": "A549 cellular tox (% cells alive)", "setting": "A549 cells [4]; formulation No. 2, 300 ng/well", "value": 104.35, "unit": "%"},
      {"measurement": "DC2.4 cell transfection/RLU", "setting": "DC2.4 cells [5]; formulation No. 1, 50 ng/well", "value": 44580.00, "unit": "RLU"},
      {"measurement": "DC2.4 cell transfection/RLU", "setting": "DC2.4 cells [5]; formulation No. 1, 100 ng/well", "value": 38457.67, "unit": "RLU"},
      {"measurement": "DC2.4 cell transfection/RLU", "setting": "DC2.4 cells [5]; formulation No. 1, 200 ng/well", "value": 51212.00, "unit": "RLU"},
      {"measurement": "DC2.4 cell transfection/RLU", "setting": "DC2.4 cells [5]; formulation No. 1, 300 ng/well", "value": 49462.00, "unit": "RLU"},
      {"measurement": "DC2.4 cell transfection/RLU", "setting": "DC2.4 cells [5]; formulation No. 2, 50 ng/well", "value": 22385.67, "unit": "RLU"},
      {"measurement": "DC2.4 cell transfection/RLU", "setting": "DC2.4 cells [5]; formulation No. 2, 100 ng/well", "value": 31266.67, "unit": "RLU"},
      {"measurement": "DC2.4 cell transfection/RLU", "setting": "DC2.4 cells [5]; formulation No. 2, 200 ng/well", "value": 45175.33, "unit": "RLU"},
      {"measurement": "DC2.4 cell transfection/RLU", "setting": "DC2.4 cells [5]; formulation No. 2, 300 ng/well", "value": 66928.33, "unit": "RLU"},
      {"measurement": "DC2.4 cellular tox (% cells alive)", "setting": "DC2.4 cells [6]; 50 ng/well", "value": 95.97, "unit": "%"},
      {"measurement": "DC2.4 cellular tox (% cells alive)", "setting": "DC2.4 cells [6]; 100 ng/well", "value": 87.33, "unit": "%"},
      {"measurement": "DC2.4 cellular tox (% cells alive)", "setting": "DC2.4 cells [6]; 200 ng/well", "value": 75.79, "unit": "%"},
      {"measurement": "DC2.4 cellular tox (% cells alive)", "setting": "DC2.4 cells [6]; 300 ng/well", "value": 92.20, "unit": "%"}
    ]}
  ]
}
